Measured values published in article PMC5290327, “SC83288 is a clinical development candidate for the treatment of severe malaria” (Nature Communications, 2017).
Entries after “also recorded” stand apart in the source; their conditions may differ. Where two headings read alike, the source gives them in different places.

Legend:
in vivo = assay type: in vivo, rat; conditions: for C0: rat, in vivo, iv; for ALB / ALB/GLOB / ALP / ALT / AMY / AST / BUN / BUN/CREA / CA / CK / CRE / EOS / GLOB / GLU / HCT / HGB / K+ / MCH / MCHC / MCV / MPV / NA+ / NA/K / PHOS / PLT / RBC / RDW / TBIL / TP / WBC: 24h
Procedure: The maximal-tolerated i.v. bolus dose of SC83288 was at 30 mg kg^−1 body weight (extrapolated initial drug plasma concentration C0 of 65,600 ng ml^−1) and 15 mg kg^−1 body weight (C0 of 27,300 ng ml^−1) in rats and mice, respectively. Observed adverse effects included ataxia, respiratory symptoms and sleepiness. However, all treated animals fully recovered within 30 min after drug application. […] Increasing the dose to 45 mg kg^−1 body weight caused apnoea in rats. The no-observed-adverse-effect level and the no-observed-effect level in rats corresponded to a tested i.v. bolus dose of 22.5 mg kg^−1 body weight (C0 of 49,200 ng ml^−1) and 15 mg kg^−1 body weight (C0 of 32,800 ng ml^−1), respectively.
(§1) On the treatment day, all animals were weighed and the dosing volume was calculated for each individual animal according to its actual body weight. All animal were dosed once. Blood samples were taken at different time points and plasma was collected after centrifugation (10,000g, 10 min, 4 °C). Plasma samples were analysed by LC–MS/MS. […] All relevant observations were recorded. The PK studies in cynomolgus monkeys and beagle dogs were performed by the Laboratory of Pharmacology and Toxicology (LPT), Hamburg, and PK and toxicity studies in mice and rats were performed by the 4SC Discovery GmbH, Munich. PK parameters were obtained by a non-compartment analysis, using Kinetica 4.1 (Thermo Scientific).

PK study = assay type: in vivo, cynomolgus; conditions: for half-life: 2 mg/kg
Procedure: as §1

[1] = cynomolgus monkey, plasma, iv, cynomolgus i.v. 2 mg kg^−1

COC(=O)N1CCN(C(=N)c2cccc(NC(=O)Nc3ccc(S(=O)(=O)NCc4ccc(S(N)(=O)=O)cc4)cc3)c2)CC1 [SC83288, methyl 4-(imino(3-(3-(4-(N-(4-sulfamoylbenzyl)sulfamoyl)phenyl)ureido)phenyl)methyl) piperazine-1-carboxylate]
haematological and clinical biochemical parameters (in vivo; 24 h post application): remained within normal range
safety margin (in vivo; projected dosing regimen vs i.v. NOAEL in rats): ~55 fold
C0 (in vivo; rats, 15 mg kg^−1 i.v. bolus (NOEL), read-out: extrapolated C0): 32800 ng/mL
C0 (in vivo; rats, 22.5 mg kg^−1 i.v. bolus (NOAEL), read-out: extrapolated C0): 49200 ng/mL
C0 (in vivo; rats, 30 mg kg^−1 i.v. bolus, read-out: extrapolated initial drug plasma concentration C0): 65600 ng/mL
maximal-tolerated i.v. bolus dose (in vivo; rats): 30 mg kg^−1 body weight
time to full recovery after drug application (in vivo; rats and mice at maximal-tolerated dose): ≤ 30 min
adverse effect (in vivo; rats, 45 mg kg^−1 body weight): apnea; also recorded: apnoea
ALB (in vivo; rats, 15 mg/kg): 4.9 g/dL
ALB/GLOB (in vivo; rats, 15 mg/kg): 5.5 g/dL
ALP (in vivo; rats, 15 mg/kg): 306 U l-1
ALT (in vivo; rats, 15 mg/kg): 51 U l-1
AMY (in vivo; rats, 15 mg/kg): 909 U l-1
AST (in vivo; rats, 15 mg/kg): 70 U l-1
BUN (in vivo; rats, 15 mg/kg): 14.7 mg/dL
BUN/CREA (in vivo; rats, 15 mg/kg): 66.7 mg/dL
CA (in vivo; rats, 15 mg/kg): 11.0 mg/dL
CK (in vivo; rats, 15 mg/kg): 176 U l-1
CRE (in vivo; rats, 15 mg/kg): 0.2 mg/dL
EOS (in vivo; rats, 15 mg/kg): 0.4%
GLOB (in vivo; rats, 15 mg/kg): 0.9 g/dL
GLU (in vivo; rats, 15 mg/kg): 202 mg/dL
HCT (in vivo; rats, 15 mg/kg): 40.9%
HGB (in vivo; rats, 15 mg/kg): 14.3 g/dL
K+ (in vivo; rats, 15 mg/kg): 5.1 mmol/L
MCH (in vivo; rats, 15 mg/kg): 20.5 pg
MCHC (in vivo; rats, 15 mg/kg): 35.1 g/dL
MCV (in vivo; rats, 15 mg/kg): 58 µm3
MPV (in vivo; rats, 15 mg/kg): 5.7 µm3
NA+ (in vivo; rats, 15 mg/kg): 136 mmol/L
NA/K (in vivo; rats, 15 mg/kg): 26.7 mmol/L
PHOS (in vivo; rats, 15 mg/kg): 9.4 mg/dL
PLT (in vivo; rats, 15 mg/kg): 812 103 mm-3
RBC (in vivo; rats, 15 mg/kg): 7.00 103 mm-3
RDW (in vivo; rats, 15 mg/kg): 13.3%
TBIL (in vivo; rats, 15 mg/kg): 0.4 mg/dL
TP (in vivo; rats, 15 mg/kg): 5.8 g/dL
WBC (in vivo; rats, 15 mg/kg): 16.7 103 mm-3
ALB (in vivo; rats, 22.5 mg/kg): 5.0 g/dL
ALB/GLOB (in vivo; rats, 22.5 mg/kg): 6.7 g/dL
ALP (in vivo; rats, 22.5 mg/kg): 399 U l-1
ALT (in vivo; rats, 22.5 mg/kg): 58 U l-1
AMY (in vivo; rats, 22.5 mg/kg): 921 U l-1
AST (in vivo; rats, 22.5 mg/kg): 79 U l-1
BUN (in vivo; rats, 22.5 mg/kg): 17.5 mg/dL
BUN/CREA (in vivo; rats, 22.5 mg/kg): 72.5 mg/dL
CA (in vivo; rats, 22.5 mg/kg): 11.0 mg/dL
CK (in vivo; rats, 22.5 mg/kg): 97 U l-1
CRE (in vivo; rats, 22.5 mg/kg): 0.3 mg/dL
EOS (in vivo; rats, 22.5 mg/kg): 0.3%
GLOB (in vivo; rats, 22.5 mg/kg): 0.8 g/dL
GLU (in vivo; rats, 22.5 mg/kg): 160 mg/dL
HCT (in vivo; rats, 22.5 mg/kg): 39.6%
HGB (in vivo; rats, 22.5 mg/kg): 14.2 g/dL
K+ (in vivo; rats, 22.5 mg/kg): 5.3 mmol/L
MCH (in vivo; rats, 22.5 mg/kg): 21.0 pg
MCHC (in vivo; rats, 22.5 mg/kg): 35.9 g/dL
MCV (in vivo; rats, 22.5 mg/kg): 59 µm3
MPV (in vivo; rats, 22.5 mg/kg): 5.9 µm3
NA+ (in vivo; rats, 22.5 mg/kg): 135 mmol/L
NA/K (in vivo; rats, 22.5 mg/kg): 25.7 mmol/L
PHOS (in vivo; rats, 22.5 mg/kg): 9.2 mg/dL
PLT (in vivo; rats, 22.5 mg/kg): 847 103 mm-3
RBC (in vivo; rats, 22.5 mg/kg): 6.77 103 mm-3
RDW (in vivo; rats, 22.5 mg/kg): 13.3%
TBIL (in vivo; rats, 22.5 mg/kg): 0.3 mg/dL
TP (in vivo; rats, 22.5 mg/kg): 5.7 g/dL
WBC (in vivo; rats, 22.5 mg/kg): 14.3 103 mm-3
ALB (in vivo; rats, 30 mg/kg): 5.4 g/dL
ALB/GLOB (in vivo; rats, 30 mg/kg): 8.9 g/dL
ALP (in vivo; rats, 30 mg/kg): 424 U l-1
ALT (in vivo; rats, 30 mg/kg): 58 U l-1
AMY (in vivo; rats, 30 mg/kg): 962 U l-1
AST (in vivo; rats, 30 mg/kg): 85 U l-1
BUN (in vivo; rats, 30 mg/kg): 15.7 mg/dL
BUN/CREA (in vivo; rats, 30 mg/kg): 78.3 mg/dL
CA (in vivo; rats, 30 mg/kg): 11.2 mg/dL
CK (in vivo; rats, 30 mg/kg): 91 U l-1
CRE (in vivo; rats, 30 mg/kg): 0.2 mg/dL
EOS (in vivo; rats, 30 mg/kg): 0.3%
GLOB (in vivo; rats, 30 mg/kg): 0.6 g/dL
GLU (in vivo; rats, 30 mg/kg): 170 mg/dL
HCT (in vivo; rats, 30 mg/kg): 40.1%
HGB (in vivo; rats, 30 mg/kg): 14.3 g/dL
K+ (in vivo; rats, 30 mg/kg): 5.4 mmol/L
MCH (in vivo; rats, 30 mg/kg): 20.5 pg
MCHC (in vivo; rats, 30 mg/kg): 35.8 g/dL
MCV (in vivo; rats, 30 mg/kg): 57 µm3
MPV (in vivo; rats, 30 mg/kg): 5.7 µm3
NA+ (in vivo; rats, 30 mg/kg): 136 mmol/L
NA/K (in vivo; rats, 30 mg/kg): 25.2 mmol/L
PHOS (in vivo; rats, 30 mg/kg): 9.0 mg/dL
PLT (in vivo; rats, 30 mg/kg): 869 103 mm-3
RBC (in vivo; rats, 30 mg/kg): 7.00 103 mm-3
RDW (in vivo; rats, 30 mg/kg): 13.4%
TBIL (in vivo; rats, 30 mg/kg): 0.3 mg/dL
TP (in vivo; rats, 30 mg/kg): 6.0 g/dL
WBC (in vivo; rats, 30 mg/kg): 11.2 103 mm-3
no-observed-adverse-effect level (in vivo; rats, i.v. bolus): 22.5 mg kg^−1 body weight
no-observed-effect level (in vivo; rats, i.v. bolus): 15 mg kg^−1 body weight
half-life (PK study; cynomolgus monkey, plasma, iv, cynomolgus i.v. 2 mg kg^−1, read-out: t1/2 effective): 1.03 h
half-life (PK study; cynomolgus monkey, plasma, iv, cynomolgus i.v. 2 mg kg^−1, read-out: t1/2 initial): 0.267 h
half-life (PK study; cynomolgus monkey, plasma, iv, cynomolgus i.v. 2 mg kg^−1, read-out: t1/2 terminal): 5.33 h
AUC(0-inf) (PK study; [1]): 4250 ng·h/mL
C0 (PK study; [1]): 7340 ng/mL
Cmax (PK study; [1]): 6570 ng/mL
Tmax (PK study; [1]): 5 min
clearance (PK study; [1]): 7.83 mL/min/kg
MRT last (PK study; cynomolgus monkey, plasma, iv, cynomolgus i.v. 2 mg kg^−1, read-out: MRT0-t): 1.5 h
C0 as multiple of the free MPC (PK study; cynomolgus, i.v. 2 mg kg^−1): ~17 times
VC (PK study; cynomolgus, i.v. 2 mg kg^−1): 0.273 L/kg
